# Measured values reported in US20240360081A1, “SULFONAMIDE OREXIN RECEPTOR AGONISTS AND USES THEREOF” (Jazz Pharmaceuticals Ireland Limited, priority 2021, published 2024).
# Molecular target: T1, human recombinant OX2 (hOX2) receptor expressed in CHO cells (Homo sapiens, UniProt O43614)
# T1 construct: host or cells: CHO cells (hOX2-CHO)
# T1 sequence (O43614 1-444): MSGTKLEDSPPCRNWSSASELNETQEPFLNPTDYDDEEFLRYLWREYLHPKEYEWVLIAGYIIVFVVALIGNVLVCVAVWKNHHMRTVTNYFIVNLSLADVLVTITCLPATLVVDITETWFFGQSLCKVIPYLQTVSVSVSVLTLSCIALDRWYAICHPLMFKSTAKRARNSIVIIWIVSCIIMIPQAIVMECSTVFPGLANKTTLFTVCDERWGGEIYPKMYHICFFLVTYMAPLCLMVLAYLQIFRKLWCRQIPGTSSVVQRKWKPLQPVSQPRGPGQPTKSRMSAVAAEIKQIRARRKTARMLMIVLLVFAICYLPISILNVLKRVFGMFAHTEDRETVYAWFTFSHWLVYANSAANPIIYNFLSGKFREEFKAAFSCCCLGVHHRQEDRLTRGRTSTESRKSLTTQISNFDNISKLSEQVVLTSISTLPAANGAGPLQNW
# Assay: IP-1 accumulation assay (IP-One HTRF) in hOX2-CHO cells
# Format: cell-based
# Conditions: 60 min at 37° C., 11 points CRC, response as % of maximal OX-A response
# Method: The accumulation of Inositol-1 Monophosphate (IP-1) was measured using IP-One HTRF® Terbium cryptate based assay (Cisbio) in human recombinant OX1 (hOX1) and at OX2 (hOX2) receptors expressed in CHO cells (DiscoverX) according to the manufacturer's instructions for cells tested in suspension.
# hOX1-CHO and hOX2-CHO cells were seeded into white 384-well plates at a density of 20,000 cells/well in Hank's Balanced Salt Solution (HBSS) containing 20 mM HEPES pH 7.4, 50 mM, LiCl and 0.1% and Bovine Serum Albumin (BSA).
# Compounds of the present disclosure were tested in a 11 points concentration response curve (CRC) serially diluted in neat DMSO at 200 fold concentrations and added by Echo acoustic liquid handling (Labcyte) to the cells (0.5% DMSO final in the assay). After 60 min of incubation at 37° C. detection reagents, IP1-d2 tracer and anti-IP1-cryptate were diluted in lysis buffer according to the manufacturer's descriptions and added to the cells.
# Following 60 min incubation at room temperature, time-resolved fluorescence (HTRF) was measured at 615 nm and 665 nm by Envision Multilabel reader (Perkin Elmer) and the HTRF ratio (A665/A615x104) was calculated.
# The IP-1 accumulation response was expressed as percentage of the maximal OX-A response.
# Curve fitting and EC50 estimations were carried out using a four-parameter logistic model using XLfit Software. Mean data of EC50 are calculated from at least two independent experiments performed in duplicates.
# In the Tables, below Category A corresponds to compounds displaying an […]<100 nM, Category B between 100 nM and 1,000 nM, Category C between 1,000 nM and 10,000 nM and Category D above 10,000 nM.
row,Structure (SMILES),EC50 [µM]
1,"CN(C)S(=O)(=O)NCC(CO[C@H]1CC[C@@H](c2ccccc2)CC1)n1ccccc1=O (relative stereo) [Example 1f, 1-{1-[(Dimethylsulfamoyl)amino]-3-{[(CIS)-4-phenylcyclohexyl]oxy}propan-2-yl}-1,2-dihydropyridin-2-one]",1 to 10
2,"Cc1cc(C)c(=O)n(C(CNS(=O)(=O)C2CC2)CO[C@H]2CC[C@@H](c3cccc(F)c3)CC2)c1 (single isomer, unassigned; isomer 2) [Example 2an, (S or R) N-[2-(3,5-dimethyl-2-oxo-1,2-dihydropyridin-1-yl)-3-{[(CIS)-4-(3-fluorophenyl)cyclohexyl]oxy}propyl]cyclopropanesulfonamide-Isomer 2]",1 to 10
3,"Cc1ccn(C(CNS(C)(=O)=O)CO[C@H]2CC[C@@H](c3ccccc3)CC2)n1 (single isomer, unassigned; isomer 1) [Example 2ab, (R or S) N-[2-(3-methyl-1H-pyrazol-1-yl)-3-{[(CIS)-4-phenylcyclohexyl]oxy}propyl]methanesulfonamide-Isomer 1]",> 10
4,"Cc1cc(C)c(=O)n(C(CNS(=O)(=O)C2CC2)CO[C@H]2CC[C@@H](c3cccc(F)c3)CC2)c1 (stereo partly drawn) [Example 2al, N-[2-(3,5-dimethyl-2-oxo-1,2-dihydropyridin-1-yl)-3-{[(CIS)-4-(3-fluorophenyl)cyclohexyl]oxy}propyl]cyclopropanesulfonamide]",< 0.1
5,"Cc1cc(Cl)cn(C(CNS(C)(=O)=O)CO[C@H]2CC[C@@H](c3cccc(F)c3)CC2)c1=O (single isomer, unassigned; isomer 1) [Example 2ah, (R or S) N-[2-(5-chloro-3-methyl-2-oxo-1,2-dihydropyridin-1-yl)-3-{[(CIS)-4-(3-fluorophenyl)cyclohexyl]oxy}propyl]methanesulfonamide-Isomer 1]",< 0.1
6,"CS(=O)(=O)NCC(CO[C@H]1CC[C@@H](c2ccccc2)CC1)n1cccc(C(F)(F)F)c1=O (stereo partly drawn) [Example 2c, N-{2-[2-oxo-3-(trifluoromethyl)-1,2-dihydropyridin-1-yl]-3-{[(CIS)-4-phenylcyclohexyl]oxy}propyl}methanesulfonamide]",1 to 10
7,"CS(=O)(=O)NCC(CO[C@H]1CC[C@@H](c2ccccc2)CC1)n1c(=O)ccc2ccccc21 (stereo partly drawn) [Example 2ak, N-[2-(2-oxo-1,2-dihydroquinolin-1-yl)-3-{[(CIS)-4-phenylcyclohexyl]oxy}propyl]methanesulfonamide]",> 10
8,"Cc1cc(C)c(=O)n(C(CNS(C)(=O)=O)COC2CCN(c3ncc(F)cn3)CC2)c1 (centres unmarked) [Example 2ay, N-[2-(3,5-dimethyl-2-oxo-1,2-dihydropyridin-1-yl)-3-{[1-(5-fluoropyrimidin-2-yl)piperidin-4-yl]oxy}propyl]methanesulfonamide]",> 10
9,"COCCS(=O)(=O)NCC(CO[C@H]1CC[C@@H](c2cccc(F)c2)CC1)n1cc(C)cc(C)c1=O (stereo partly drawn) [Example 2ax, N-[2-(3,5-dimethyl-2-oxo-1,2-dihydropyridin-1-yl)-3-{[(CIS)-4-(3-fluorophenyl)cyclohexyl]oxy}propyl]-2-methoxyethane-1-sulfonamide]",< 0.1
10,"Cc1ccn(C(CNS(C)(=O)=O)CO[C@H]2CC[C@@H](c3ccccc3)CC2)c(=O)c1 (stereo partly drawn) [Example 2d, N-[2-(4-methyl-2-oxo-1,2-dihydropyridin-1-yl)-3-{[(CIS)-4-phenylcyclohexyl]oxy}propyl]methanesulfonamide]",1 to 10
11,"Cc1cccn(C(CNS(C)(=O)=O)CO[C@H]2CC[C@@H](c3ccccc3)CC2)c1=O (single isomer, unassigned; isomer 2) [Example 1e, (S or R) N-[(2R)-2-(3-methyl-2-oxo-1,2-dihydropyridin-1-yl)-3-{[(CIS)-4-phenylcyclo-hexyl]oxy}propyl] methane-sulfonamide- Isomer 2]",0.1 to 1
12,"CS(=O)(=O)NCC(CO[C@H]1CC[C@@H](c2ccccc2)CC1)n1cccc(C#N)c1=O (stereo partly drawn) [Example 2e, N-[2-(3-cyano-2-oxo-1,2-dihydropyridin-1-yl)-3-{[(CIS)-4-phenylcyclohexyl]oxy}propyl]methanesulfonamide]",1 to 10
13,"Cc1cc(C)c(=O)n(C(CNS(=O)(=O)CF)CO[C@H]2CC[C@@H](c3cccc(F)c3)CC2)c1 (single isomer, unassigned; isomer 2) [Example 2av, (S or R) N-[2-(3,5-dimethyl-2-oxo-1,2-dihydropyridin-1-yl)-3-{[(CIS)-4-(3-fluorophenyl)cyclohexyl]oxy}propyl]-1-fluoromethanesulfonamide-Isomer 2]",0.1 to 1
14,"Cc1ccnn1C(CNS(C)(=O)=O)CO[C@H]1CC[C@@H](c2ccccc2)CC1 (single isomer, unassigned; isomer 2) [Example 2ae, (S or R) N-[2-(5-methyl-1H-pyrazol-1-yl)-3-{[(CIS)-4-phenylcyclohexyl]oxy}propyl]methanesulfonamide-Isomer 2]",> 10

# The remaining lines, values ahead:
row,EC50 [µM],Structure (SMILES)
1,< 0.1,"Cc1cc(C(CNS(C)(=O)=O)CO[C@H]2CC[C@@H](c3cccc(F)c3)CC2)c(=O)n(CC(F)F)c1 (stereo partly drawn) [Example 5w, N-{2-[1-(2,2-difluoroethyl)-5-methyl-2-oxo-1,2-dihydropyridin-3-yl]-3-{[(CIS)-4-(3-fluorophenyl)cyclohexyl]oxy}propyl}methanesulfonamide]"
2,1 to 10,"Cc1cccn(C(CO[C@H]2CC[C@@H](c3ccccc3)CC2)C(C)NS(C)(=O)=O)c1=O (single isomer, unassigned; isomer 1) [Example 3a, (2R or 2S) and (3R or 3S) N-[3-(3-methyl-2-oxo-1,2-dihydropyridin-1-yl)-4-{[(CIS)-4-phenylcyclohexyl]oxy}butan-2-yl]methanesulfonamide—Isomer 1]"
3,< 0.1,"Cc1cc(C)[n+]([O-])c(C(CNS(C)(=O)=O)CO[C@H]2CC[C@@H](c3ccccc3)CC2)c1 (stereo partly drawn) [Example 5j, 2-(1-methanesulfonamido-3-{[(CIS)-4-phenylcyclohexyl]oxy}propan-2-yl)-4,6-dimethylpyridin-1-ium-1-olate]"
4,< 0.1,"Cc1cc(C(CNS(=O)(=O)N(C)C)CO[C@H]2CC[C@@H](c3cccc(F)c3)CC2)c(=O)n(C)c1 (single isomer, unassigned; isomer 1) [Example 5r, (R or S) 3-[1-[(dimethylsulfamoyl)amino]-3-{[(CIS)-4-(3-fluorophenyl)cyclohexyl]oxy}propan-2-yl]-1,5-dimethyl-1,2-dihydropyridin-2-one—Isomer 1]"
5,1 to 10,"Cc1cc(C)nc(C(CNS(C)(=O)=O)CO[C@H]2CC[C@@H](c3ccccc3)CC2)c1 (stereo partly drawn) [Example 5i, N-[2-(4,6-dimethylpyridin-2-yl)-3-{[(CIS)-4-phenylcyclohexyl]oxy}propyl]methanesulfonamide]"
6,< 0.1,"Cc1cc(C(CNS(C)(=O)=O)CO[C@H]2CC[C@@H](c3cccc(F)c3)CC2)c(=O)n(C2CC2)c1 (stereo partly drawn) [Example 5v, N-[2-(1-cyclopropyl-5-methyl-2-oxo-1,2-dihydropyridin-3-yl)-3-{[(CIS)-4-(3-fluorophenyl)cyclohexyl]oxy}propyl]methanesulfonamide]"
7,1 to 10,"COc1ccn(C)c(=O)c1C(CNS(C)(=O)=O)CO[C@H]1CC[C@@H](c2ccccc2)CC1 (stereo partly drawn) [Example 5b, N-[2-(4-methoxy-1-methyl-2-oxo-1,2-dihydropyridin-3-yl)-3-{[(CIS)-4-phenylcyclohexyl]oxy}propyl]methanesulfonamide]"
8,< 0.1,"Cc1cc(C(CNS(=O)(=O)CF)CO[C@H]2CC[C@@H](c3cc(F)cc(F)c3)CC2)c(=O)n(C)c1 (relative stereo) [Example 5t, N-[2-(1,5-dimethyl-2-oxo-1,2-dihydropyridin-3-yl)-3-{[(CIS)-4-(3,5-difluorophenyl)cyclohexyl]oxy}propyl]-1-fluoromethanesulfonamide]"
9,< 0.1,"Cc1cc(C(CNS(=O)(=O)N(C)C)CO[C@H]2CC[C@@H](c3cccc(F)c3)CC2)c(=O)n(C)c1 (stereo partly drawn) [Example 5q, 3-{1-[(dimethylsulfamoyl)amino]-3-{[(CIS)-4-(3-fluorophenyl)cyclohexyl]oxy}propan-2-yl}-1,5-dimethyl-1,2-dihydropyridin-2-one]"
